Results on 13 compounds are retold here after patent publication US6927221B2, “Tricyclic fused heterocyclic compound, process for preparing it and medicament comprising it” (Eisai Co., Ltd., priority 1999, dated 2005).

For test [1], the system named is AtT-20 cell. Briefly: Experiment for measuring adenylate cyclase activity using AtT-20 cell (CRF-induced cAMP). Type of test: cell-based, mouse. The following applies: 1 mM IBMX, intracellular cAMP by ELISA, read-out: adenylate cyclase ability IC50. The text has this:
Experiment for Measuring Adenyrate Cyclase the Activity Using AtT-20 Cell
• (1) Test procedures: AtT-20 cell is a cell strain derived from mouse pytuitari gland tumor, it is known that the intracellular adenyrate cyclase system is activated in response to corticotrophin release hormone (CRF), to produce cyclic AMP (cAMP), releasing adrenocortical hormone (ACTH) (Biochem. Piophys. Res. Com. 106. 1364-1371, 1982). In this experiment, the cell 1×10^5) suspended in D-MEM medium (0.1% FPS), seeded on a 96-well plate, a phosphodiesterase inhibitor (IBMX, Calbiochem) was added to the final concentration of 1 mM, which was cultured at 37° C. for 30 minutes. A diluted test compound solution and CRF (30 nM) were added, which was further cultured at 37° C. for 10 minutes, cells were collected by centrifugation (500×g, 5 minutes), cells were lysed with a lysis buffer (Amersham Pharmacia), and an amount of intracellular cAMP produced was quantitated using the ELISA method. For ELISA, cAMP EIA system (BIOTRAK™ Amersham Pharmacia) was used. • (2) Calculation of adenyrate cyclase activity inhibitory ability: Treatment of the resulting data was carried out as follows. An amount of cAMP produced by a cell to which 30 nM CRF was added is regarded as 100% (control) and a value of each sample is expressed as % (% of control). The concentration showing 50% in % (% of control) was obtained from a graph where the concentration of a test material is plotted on an abscissa axis and % (% of control) is plotted on a coordinate and IC50 value was calculated (Table 2).
Background: An ELISA detects its analyte on a solid surface through an enzyme-linked reagent.

For test [2], the target named is T1, human CRFR1 (Homo sapiens, UniProt P34998).
T1 construct: The full length gene of CRFR^1 was obtained by a PCT method using human brain (QuickClone™ Clontech) as cDNA library; expressed in transfected cells; host or cells: Hek 283 cell (so in the source)
T1 sequence (P34998 24-415): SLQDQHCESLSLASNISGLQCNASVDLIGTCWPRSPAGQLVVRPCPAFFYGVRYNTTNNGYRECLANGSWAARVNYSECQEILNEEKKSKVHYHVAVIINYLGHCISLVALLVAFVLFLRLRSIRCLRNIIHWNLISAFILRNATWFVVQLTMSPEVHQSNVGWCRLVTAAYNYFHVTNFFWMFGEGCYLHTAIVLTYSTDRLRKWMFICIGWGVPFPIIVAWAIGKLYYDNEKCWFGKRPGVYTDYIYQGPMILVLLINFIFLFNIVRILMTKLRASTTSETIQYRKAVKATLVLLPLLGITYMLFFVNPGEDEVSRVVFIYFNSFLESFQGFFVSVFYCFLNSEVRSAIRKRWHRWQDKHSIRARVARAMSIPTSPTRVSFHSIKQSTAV
Kind of test: CRFR binding experiment (125I-sauvagine, SPA). The following applies: membrane fraction of cell expressing human CRFR1, 40 pM 125I-sauvagine, room temperature, two hours; read-out: CRF1 receptor binding ability IC50. As for the experimental part:
• (1) Preparation of CRFR expressing cell: As an experiment material for the CRFR binding experiment, a membrane fraction of a cell which expressed highly human CRFR1. CRFR expressing cell was prepared as follows. The full length gene of CRFR^1 was obtained by a PCT method using human brain (QuickClone™ Clontech) as cDNA library. The resulting DNA fragment was inserted into a cloning vector to confirm the base sequence. A cDNA having the correct base sequence was ligated to an expression vector (pcDNA3.1™, Invitrogen). A gene was inserted into […] cell and grown in a cell culturing solution containing G418 (1 mg/ml) to obtain a resistance cell, into which a CRFR^1 expression vector was cloned by a limitation diluting method. A clone having the high binding ability of membrane and sauvagine per unit protein was finally selected from cloned cells by a binding experiment shown by the method shown below, which was used for an experiment. • (2) Preparation of a membrane fraction: G418 resistant cells into which a gene for CRFR^1 was introduced were collected, and cell rupture was performed by an ultrasound generator with a sonicate buffer (D-PBS-10 mM MgCl2, 2 mM EGTA). A suspension after ultrasound rupture was centrifuged (46,000×g, 10 minutes), the sediment thereof was further resuspended with a sonicate buffer, and the same procedures were related. Finally, the sediment was suspended in a binding buffer (D-PBS-10 mM MgCl2, 2 mM EGTA, 1.5% BSA, 0.15 mM bacitracin, 1× protease inhibitor cocktail (COMPLETE™, Boehringer), to adjust the protein concentration at 1.6 mg/ml, which was used as a membrane fraction. • (3) Binding experiment: Binding experiment with sauvagine was performed using a 96-well plate and SP™ (Amersham pharmacia) An experiment was according to the specification of SPA beads. […] of a membrane fraction protein, 0.5 mg of beads and 40 pM ^125I-sauvaging (Amersham pharmacia) were allowed to stand at room temperature for two hours in the presence a test compound, centrifuged (1,000×g, 5 minutes), and then the radioactivity of each well was measured with TopCount™ (Packard). • (4) Calculation of the binding ability: The radioactivity as the non-specific binding when 1,000-fold excessive amount of non-radioactive sauvagine was added was substacted from each value, the radioactivity where no test material is added is regarded as 100% (control), and each value is shown by % (% of control). The concentration showing 50% in % (% of control) was obtained from a graph where the concentration test material is plotted on an abscissa axis and % (% of control) is plotted on a coordinate axis and IC50 value was calculated (Table 1)

Molecules are shown by their SMILES. Counter-ions that a name gives are not always drawn. Like-named read-outs stand apart in the source and are kept apart here.

For `CCC(CC)N1CCc2c(C)nc3c(-c4c(C)cc(C)cc4C)c(C)nn3c21` [Example 1, 8-(1-Ethylpropyl)-3-mesityl-2,5-dimethyl-7,8-dihydro-6H-pyrazolo[1,5-a]pyrrolo[3,2-e]pyrimidine hydrochloride], the IC50 in test [1] (Mus musculus, AtT20, 30 nM CRF) came to 900 nM; in test [2] it was 100 nM.
With `CCCCN1CCc2c(C)nc3c(-c4c(C)cc(C)cc4C)c(C)nn3c21` [Example 2, 8-Butyl-3-mesityl-2,5-dimethyl-7,8-dihydro-pyrazolo[1,5-a]pyrrolo[3,2-e]pyrimidine hydrochloride], the IC50 in test [2] was 500 nM.
For `CCCC(CCC)N1CCc2c(C)nc3c(-c4cnc(N(C)C)cc4C)c(C)nn3c21` [Example 3, N-5-[2,5-Dimethyl-8-(1-propylbutyl)-7,8-dihydro-6H-pyrazolo[1,5-a]pyrrolo[3,2-e]pyrimidin-3-yl]-4-methyl-2-pyridyl-N,N-dimethylamine hydrochloride], in test [2], the IC50 worked out at 600 nM.
Still for that read-out and setting: under `CCCC(CCC)N1CCc2c(C)nc3c(-c4c(C)cc(C)cc4C)c(C)nn3c21` [Example 6, 3-Mesityl-2,5-dimethyl-8-(1-propylbutyl)-7,8-dihydro-6H-pyrazolo[1,5-a]pyrrolo[3,2]-pyrimidine hydrochloride] stands 1000 nM; under `CCC(CC)N1CCCc2c(C)nc3c(-c4c(C)cc(C)cc4C)c(C)nn3c21` [Example 12, 9-(1-Ethylpropyl)-3-mesityl-2,5-dimethyl-6,7,8,9-tetrahydropyrazolo[1,5-a]pyrido[3,2-e]pyrimidine], 1500 nM.
As to `CCC(CC)N1c2c(c(C)nc3c(-c4c(C)cc(C)cc4C)c(C)nn23)CC1C` (stereo not shown) [Example 13, 8-(1-Ethylpropyl)-mesityl-2,5,7-trimethyl-7,8-dihydro-6H-pyrazolo[1,5-a]pyrrolo[3,2-e]pyrimidine], the IC50 in test [1] (30 nM CRF) was determined as 1500 nM; in test [2] it was 2500 nM.
On to `CCc1nn2c3c(c(C)nc2c1-c1c(C)cc(C)cc1C)CCN3C(CC)CC` [Example 23, 2-Ethyl-8-(1-ethylpropyl)-3-mesityl-5-methyl-7,8-dihydro-6H-pyrazolo[1,5-a]pyrrolo[3,2-e]pyrimidine], for which the IC50 in test [2] came out at 1500 nM.
`CCC(CC)N1CCc2c(C)nc3c(-c4ccc(Cl)cc4Cl)c(C)nn3c21` [Example 33, 3-(2,4-Dichlorophenyl)-8-(1 ethylpropyl)-2,5-dimethyl-7,8-dihydro-6H-pyrazolo[1,5-a]pyrrolo[3,2-e]pyrimidine hydrochloride]: in test [2], the IC50 is 1000 nM.
As for `Cc1cc(C)c(-c2c(C)nn3c4c(c(C)nc23)CCN4CC2CC2)c(C)c1` [Example 38, 8-(Cyclopropylmethyl)-3-mesityl-2,5-dimethyl-7,8-dihydro-6H-pyrazolo[1,5-a]pyrrolo[3,2-e]pyrimidine hydrochloride], the IC50 in test [2] turned out to be 3000 nM.
For the compound `COCCN1c2c(c(C)nc3c(-c4c(C)cc(C)cc4C)c(C)nn23)CC1C` (stereo not shown) [Example 44, 3-Mesityl-8-(2-methoxyethyl)-2,5,7-trimethyl-7,5-dihydro-6H-pyrazolo[1,5-a]pyrrolo[3,2-e]pyrimidine hydrochloride], the IC50 in test [2] stood at 400 nM.
On the same count and under the same terms, under `Cc1cc(C)c(-c2c(C)nn3c4c(c(C)nc23)CCN4C2CCCCCC2)c(C)c1` [Example 45, 8-Cycloheptyl-3-mesityl-2,5-dimethyl-7,8-dihydro)-6H-pyrazolo[1,5-a]pyrrolo[3,2-e]pyrimidine hydrochloride] stands 1500 nM.
With `CCC(CC)n1ccc2c(C)nc3c(-c4c(C)cc(C)cc4C)c(C)nn3c21` [Example 67, 8-(1-Ethylpropyl)-3-mesityl-2,5-dimethyl-8H-pyrazolo[1,5-a]pyrrolo[3,2-e]pyrimidine], the IC50 in test [1] (Mus musculus, AtT20, 30 nM CRF) came out at 2000 nM; in test [2], 200 nM.
As to `CCCC(=O)N1CCc2c(C)nc3c(-c4c(C)cc(C)cc4C)c(C)nn3c21` [Example 74, 1-(3-Mesityl-2,5-dimethyl-7,8-dihydro-6H-pyrazolo[1,5-a]pyrrolo[3,2-e]pyrimidin-8-yl)-1-butanone], the IC50 in test [2] came to 1400 nM.

Usually IC50 stands for the concentration at which inhibition is half-maximal.
